Assay results from patent publication US6406866B1 (OREGON HEALTH SCIENCES UNIVERSITY, dated 2002).

Key:
[1] = molecular target: T1, novel mammalian opioid receptor (MSOR, LC132) (Rattus norvegicus, UniProt P35370); assay type: binding
T1 construct: The entire coding region of the receptor cDNA insert was subcloned in to the RcRSV vector; expressed in transfected cells

[2] = test system: untransfected COS-7 and Ltk- cells; experiment: Radioligand binding to membranes of untransfected cells (control); settings: untransfected COS-7 and Ltk- cell membranes
[3] = Horizontal and vertical locomotor activity (Digiscan Animal Activity Monitors); assay type: in vivo, mice; settings: i.c.v., 0.1-10 nmol/2 μL/mouse, first 10 min
Protocol: (§1) For these experiments, the peptide was administered intracerebroventricularly (i.c.v.) and intrathecally (i.t.) in mice. Immediately after peptide administration, mice were placed in transparent boxes in groups of three and behavioral signs recorded. Emphasis was placed on signs indicative of depressant, stimulant and autonomic effects of the peptide (as described by Irwin, 1968, Psychopharmacologia 13: 222). […] The effects of the peptide on horizontal (FIG. 10A) and vertical (FIG. 10B) locomotor activity was measured using Digiscan Animal Activity Monitors (Omnitech, Columbus Ohio). The values for horizontal and vertical locomotor activity represent the total number of interruptions of the horizontal and vertical sensors during the first 10 min following administration of the peptide. Data are shown as the mean ± standard error of the mean.

[4] = Hot plate test of nociception; toe- and tail-pinch reflexes; assay type: in vivo, mice
Protocol: Groups of 6-8 male MORO mice (weight=22 g) were administered phosphate buffered saline (open circles) or varying doses of the orphanin peptide. Reaction time represents the time taken for the mice to lick their paws. The hot plate was set to 58° C., and a cutoff time of 60 sec was used. […] (designated by an asterisk). This observation was most likely related to a decrease in locomotor activity and muscle tone.

[5] = Open-field observation of behavioral signs after peptide administration; assay type: in vivo, mice
Protocol: as §1

[6] = molecular target: T2, novel mammalian MSOR opioid receptor (methadone-specific opioid receptor) (rat, UniProt P35370 1-367); experiment: cell-based or functional assay
T2 chain: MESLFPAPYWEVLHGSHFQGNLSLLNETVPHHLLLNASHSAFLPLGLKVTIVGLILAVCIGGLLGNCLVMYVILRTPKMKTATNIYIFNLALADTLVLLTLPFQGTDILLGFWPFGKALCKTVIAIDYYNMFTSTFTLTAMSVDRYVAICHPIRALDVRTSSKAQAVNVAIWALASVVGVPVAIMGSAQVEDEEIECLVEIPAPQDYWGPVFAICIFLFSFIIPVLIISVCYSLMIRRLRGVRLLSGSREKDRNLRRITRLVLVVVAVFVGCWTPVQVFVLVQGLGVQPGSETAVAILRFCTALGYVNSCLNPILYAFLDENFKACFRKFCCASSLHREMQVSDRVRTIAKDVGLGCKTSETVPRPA

[7] = molecular target: T2, novel mammalian MSOR opioid receptor …; experiment: saturation radioligand binding (scintillation proximity assay) to membranes of MSOR-transfected CHO cells (LC-7), Scatchard analysis
[8] = molecular target: T2, novel mammalian MSOR opioid receptor …; experiment: assay not described

T1 sequence (P35370 whole entry): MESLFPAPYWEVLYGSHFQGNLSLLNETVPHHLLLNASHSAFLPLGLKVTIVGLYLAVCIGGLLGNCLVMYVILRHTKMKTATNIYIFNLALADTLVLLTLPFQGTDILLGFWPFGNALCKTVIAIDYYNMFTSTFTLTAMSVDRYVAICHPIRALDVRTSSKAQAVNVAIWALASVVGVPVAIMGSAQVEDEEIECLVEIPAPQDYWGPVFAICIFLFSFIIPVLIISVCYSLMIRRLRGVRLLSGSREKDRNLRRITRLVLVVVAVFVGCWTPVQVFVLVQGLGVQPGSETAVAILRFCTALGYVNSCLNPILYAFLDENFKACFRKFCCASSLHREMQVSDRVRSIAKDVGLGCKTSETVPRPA

Molecule: C[C@@H](NC(=O)[C@@H](N)Cc1ccc(O)cc1)C(=O)NCC(=O)N(C)[C@@H](Cc1ccccc1)C(=O)NCCO [DAMGO, Tyr-DAla-Gly-Met-Phe-Gly-ol]
- specific binding of the radioactively-labeled opioid agonist or antagonist [1]: no specific binding

Molecule: CCC12CCN(CC3(O)CC3)C(Cc3ccc(O)cc31)C2(C)C (centres unmarked) [bremacozine]
- specific binding of the radioactively-labeled opioid agonist or antagonist [1]: no specific binding

Molecule: CN1CC[C@]23c4c5ccc(O)c4O[C@H]2[C@@H](O)CC[C@H]3[C@H]1C5 [dihydromorphine]
- specific binding of the radioactively-labeled opioid agonist or antagonist [1]: no specific binding

Molecule: CC[C@]12CCN(CC3CC3)[C@H](C(=O)c3ccc(O)cc31)[C@@H]2C [ethylketocyclazocine]
- specific binding of the radioactively-labeled opioid agonist or antagonist [1]: no specific binding

Molecule: CCC(=O)C(CC(C)N(C)C)(c1ccccc1)c1ccccc1 (centres unmarked) [methadone]
- Bmax [1]: 400-450 femtomoles/μg protein
- specific binding of the radioactively-labeled opioid agonist or antagonist [1]: specific binding was found
- endogenous specific binding of the radioligand [2]: no or negligible amounts

Molecule: C=CCN1CC[C@]23c4c5ccc(O)c4O[C@H]2C(=O)CC[C@@]3(O)[C@H]1C5 [naloxone]
- endogenous specific binding of the radioligand [2]: endogenous low levels of specific

Molecule: CC(C)C[C@H](NC(=O)[C@H](CCCCN)NC(=O)[C@H](CCCNC(=N)N)NC(=O)[C@H](C)NC(=O)[C@H](CO)NC(=O)[C@H](CCCCN)NC(=O)[C@H](CCCNC(=N)N)NC(=O)[C@H](C)NC(=O)CNC(=O)[C@@H](NC(=O)[C@H](Cc1ccccc1)NC(=O)CNC(=O)CNC(=O)[C@@H](N)Cc1ccccc1)[C@@H](C)O)C(=O)N[C@@H](C)C(=O)N[C@@H](CC(N)=O)C(=O)N[C@@H](CCC(N)=O)C(=O)O [orphanin FQ]
- horizontal locomotion [3]: decrease
- vertical locomotion [3]: decrease
- toe- and tail-pinch reflexes ([4]; all doses tested): normal
- inhibition of nociception ([4]; i.c.v., all doses except the highest, 10 nmol/mouse): No significant inhibition
- analgesic effect in hot plate test ([4]; i.c.v., hot plate 58° C., cutoff 60 sec): little analgesic effect
- analgesic effect ([4]; i.t., 2.5-10 nmol/4 μL/animal): No analgesic effect
- motor effects at the highest dose ([4]; i.t., highest dose): hindlimb paralysis and decrease in locomotor activity
- ataxia [5]: ataxia
- muscle tone [5]: decrease in muscle tone
- righting reflex [5]: loss of righting reflex
- influence on locomotor activity ([5]; i.c.v. and i.t. administration): profound influence on locomotor activity

Molecule: β-endorphin
- specific binding of the radioactively-labeled opioid agonist or antagonist [1]: no specific binding

Molecule: FGGFTGARKSARKYANQ [Y14-orphanin FQ]
- cAMP inhibition assay in MSOR-transfected CHO cells, EC50 [6]: 1 nM

B1: monoiodinated Y14-orphanin FQ (peptide)
peptide: FGGFTGARKSARKYANQ
modifications: monoiodotyrosine at position 14 (125I in the binding assay), made by the chloramine T method
notes: also called I-Y14
- Kd [7]: 0.3 nM

Molecule: YGGFLRRIRPKLKWDNQ [dynorphin A]
- binding result [8]: no binding

Molecule: YGGFMTSEKSQTPLVT [α-endorphin]
- binding result [8]: no binding

Molecule: YGGFLRRQFKVVT [dynorphin B]
- binding result [8]: no binding

Molecule: YGGFL [Leu-Enkephalin]
- binding result [8]: no binding
